Experimental data as given in patent US10703764B2, “Benzopiperazine compositions as BET bromodomain inhibitors” (FORMA Therapeutics, Inc., priority 2013, dated 2020).
Read-outs that look alike come from different tables or passages of the source.

Experiments:
BRD4 BD2 = biological target: T1, BRD4 BD2 (Homo sapiens, UniProt O60885); assay: AlphaScreen binding assay, BRD4 Bromodomain 2
T1 construct: made in house
In short: (§1)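 Compound dilution series were mixed with His-tagged BRD4 bromodomain and biotinylated tetra-acetylated H4 (1-21) peptide at pH 7.3 (BD1 and peptide at 50 nM, BD2 and peptide at 100 nM). Donor and acceptor beads were then added, and plates were equilibrated at least 1 h before reading. IC50 values were fitted with a four-parameter logistic model.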

BRD4 BD1 = biological target: T2, BRD4 BD1 (Homo sapiens, UniProt O60885); assay: AlphaScreen binding assay, BRD4 Bromodomain 1
T2 construct: made in house
In short: as §1

MV4-11 cells = assay: Oncology cell growth assay (3-day proliferation, CellTiter-Glo); type: cell-based; conditions: Homo sapiens, AML cell line MV4-11, 72 hours, compounds grouped by IC50 range, read-out: MV4-11 IC50 (inhibition of proliferation, gIC50)
In short: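 MV4-11 AML cells (RPMI 1640, 10% FBS) plated at 3000 cells/well and exposed 72 h to compound at final 10 to 0.0045 μM (3-fold series). Viability read by CellTiter-Glo luminescence; gIC50 from four-parameter logistic fit between DMSO control and no-cell background.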

IC50 (BRD4 BD2) [nM] | IC50 (BRD4 BD1) [nM] | IC50 (MV4-11 cells; MV4-11, 72 h) [nM] | Compound | IC50 (MV4-11 cells) [nM]
< 50 | 100 to 1000 | 100 to 500 | CC(=O)N1c2ccc(-c3cnn(CC(=O)N4CCCCC4)c3)cc2N(C(=O)OC(C)C)C[C@@H]1C [Example I-599] | –
50 to 500 | 100 to 1000 | 100 to 500 | CC(=O)N1c2ccc(-c3cnn(C4CC4)c3)cc2N(C(=O)Oc2ccccc2C)C[C@@H]1C [Example I-509] | –
50 to 500 | 100 to 1000 | 100 to 500 | CCNC(=O)Cn1cc(-c2ccc3c(c2)N(C(=O)OC(C)C)C[C@H](C)N3C(C)=O)cn1 [Example I-664] | –
50 to 500 | 1000 to 10000 | 100 to 500 | CC(=O)N1c2ccc(-c3cnn(CCN(C)C)c3)cc2N(C(=O)OC(C)C)C[C@@H]1C [Example I-129, (S)-isopropyl 4-acetyl-7-(1-(2-(dimethylamino)ethyl)-1H-pyrazol-4-yl)-3-methyl-3,4-dihydroquinoxaline-1(2H)-carboxylate] | –
50 to 500 | 100 to 1000 | > 500 | CC(C)OC(=O)N1C[C@H](C)N(C(=O)C2CC2)c2ccc(-c3cnn(CCN4CCCS4(=O)=O)c3)cc21 [Example I-611] | –
50 to 500 | 100 to 1000 | 100 to 500 | CC(=O)N1c2ccc(-c3ccc(C(=O)N4CC(O)C4)cc3)cc2N(C(=O)OC(C)C)C[C@@H]1C [Example I-582] | –
50 to 500 | 100 to 1000 | 100 to 500 | CCOC(=O)N1C[C@H](C)N(C(C)=O)c2ccc(-c3cnn(C4CC4)c3)cc21 [Example I-21, (S)-ethyl 4-acetyl-7-(1-cyclopropyl-1H-pyrazol-4-yl)-3-methyl-3,4-dihydroquinoxaline-1(2H)-carboxylate] | –
50 to 500 | 100 to 1000 | 100 to 500 | CC(=O)N1c2ccc(-c3cnn(CCN4CCOCC4)c3)cc2N(C(=O)OC(C)C)C[C@@H]1C [Example I-306] | –
50 to 500 | 100 to 1000 | 100 to 500 | CC(=O)N1c2ccc(-c3ccc(S(N)(=O)=O)cc3)cc2N(C(=O)OC(C)C)C[C@@H]1C [Example I-1069] | –
50 to 500 | 100 to 1000 | 100 to 500 | CC(=O)N1c2ccc(-c3cnn(CCCO)c3)cc2N(C(=O)OC(C)C)C[C@@H]1C [Example I-137, (S)-isopropyl 4-acetyl-7-(1-(3-hydroxypropyl)-1H-pyrazol-4-yl)-3-methyl-3,4-dihydroquinoxaline-1(2H)-carboxylate] | –
50 to 500 | 100 to 1000 | 100 to 500 | CC(=O)N1c2ccc(-c3cnn(CC4COC4)c3)cc2N(C(=O)OC(C)C)C[C@@H]1C [Example I-642] | –
50 to 500 | 100 to 1000 | 100 to 500 | CC(=O)N1c2ccc(-c3ccc(N4CCCS4(=O)=O)cc3)cc2N(C(=O)OC(C)C)C[C@@H]1C [Example I-469] | –
< 50 | 100 to 1000 | 100 to 500 | CC(=O)N1c2ccc(-c3cnn(Cc4ccccn4)c3)cc2N(C(=O)C2CC2)C[C@@H]1C [Example I-121, (S)-1-(4-(cyclopropanecarbonyl)-2-methyl-6-(1-(pyridin-2-ylmethyl)-1H-pyrazol-4-yl)-3,4-dihydroquinoxalin-1(2H)-yl)ethanone] | –
50 to 500 | 100 to 1000 | 100 to 500 | CC(=O)N1c2ccc(-c3cccc(S(=O)(=O)NCCO)c3)cc2N(C(=O)OC(C)C)C[C@@H]1C [Example I-1111] | –
50 to 500 | 100 to 1000 | 100 to 500 | CC(=O)N1c2ccc(-c3cnn(CC(=O)N(C)C)c3)cc2N(C(=O)OC(C)C)C[C@@H]1C [Example I-305] | –
50 to 500 | 100 to 1000 | 100 to 500 | CC(=O)N1c2ccc(-c3cnn(C4CCNCC4)c3)cc2N(C(=O)OC(C)C)C[C@@H]1C [Example I-353] | –
50 to 500 | 100 to 1000 | 100 to 500 | CC(=O)N1c2ccc(-c3cnn(Cc4cncs4)c3)cc2N(C(=O)OC(C)C)C[C@@H]1C [Example I-143, (S)-isopropyl 4-acetyl-3-methyl-7-(1-(thiazol-5-ylmethyl)-1H-pyrazol-4-yl)-3,4-dihydroquinoxaline-1(2H)-carboxylate] | –

The next lines start with the compound.

Compound | IC50 (BRD4 BD2) [nM] | IC50 (BRD4 BD1) [nM] | IC50 (MV4-11 cells; MV4-11, 72 h) [nM] | IC50 (MV4-11 cells) [nM]
CC(=O)N1c2ccc(-c3ccc(N4CCCS4(=O)=O)cc3)cc2N(C(=O)Oc2ccc(F)cc2F)C[C@@H]1C [Example I-1011] | < 50 | 100 to 1000 | 100 to 500 | –
COc1ccc(-c2ccc3c(c2)N(C(=O)C2CC2)C[C@H](C)N3C(C)=O)cc1N1CCCS1(=O)=O [Example I-1167] | 50 to 500 | 100 to 1000 | 100 to 500 | –
CC(=O)N1c2ccc(-c3ccc(N(C)C)cc3)cc2N(C(=O)c2ccco2)C[C@@H]1C [Example I-871] | < 50 | 100 to 1000 | 100 to 500 | –
CC(=O)N1c2ccc(-c3cnn(C4CC4)c3)cc2N(C(=O)Oc2cccc3cccnc23)C[C@@H]1C [Example I-1195] | < 50 | 100 to 1000 | < 100 | –
CC(=O)N1c2ccc(-c3cnn(C4CNC4)c3)cc2N(C(=O)Oc2cccnc2)C[C@@H]1C [Example I-1294] | 50 to 500 | 100 to 1000 | – | > 500
CC(=O)N1c2ccc(-c3ccc(S(C)(=O)=O)cc3)cc2N(C(=O)Oc2cccc3ccccc23)C[C@@H]1C [Example I-251] | 50 to 500 | 1000 to 10000 | > 500 | –
COc1ccc(OC(=O)N2C[C@H](C)N(C(C)=O)c3ccc(-c4ccc(S(C)(=O)=O)cc4)cc32)cc1 [Example I-233] | < 50 | 100 to 1000 | < 100 | –
CC(=O)N1c2ccc(-c3ccc(N(C)S(C)(=O)=O)cc3)cc2N(C(=O)C2CC2)C[C@@H]1C [Example I-350] | 50 to 500 | 1000 to 10000 | 100 to 500 | –
COC(=O)N1c2ccc(-c3ccc(C(=O)N4CC[C@H](NC(C)=O)C4)cc3)cc2N(C(=O)OC(C)C)C[C@@H]1C [Example I-571] | 50 to 500 | 100 to 1000 | 100 to 500 | –
CC(=O)N1c2ccc(-c3ccc4c(ccn4C)c3)cc2N(C(=O)c2ccco2)C[C@@H]1C [Example I-796] | < 50 | 100 to 1000 | 100 to 500 | –
CC(=O)N1c2ccc(-c3cccc(NS(=O)(=O)N(C)C)c3)cc2N(C(=O)C2CC2)C[C@@H]1C [Example I-1143] | 50 to 500 | 1000 to 10000 | 100 to 500 | –
CC(=O)N1c2ccc(-c3ccc(S(=O)(=O)N(C)C)cc3)cc2N(C(=O)C2CC2)C[C@@H]1C [Example I-1123] | 50 to 500 | 1000 to 10000 | 100 to 500 | –
CC(=O)N1c2ccc(-c3cccc(S(N)(=O)=O)c3)cc2N(C(=O)OC2CCOCC2)C[C@@H]1C [Example I-1220] | 50 to 500 | 100 to 1000 | 100 to 500 | –
CC(=O)N1c2ccc(-c3ccc4cnn(C)c4c3)cc2N(C(=O)c2ccco2)C[C@@H]1C [Example I-843] | < 50 | 100 to 1000 | 100 to 500 | –
CC(=O)N1c2ccc(-c3cnn(C4CC4)c3)cc2N(C(=O)Oc2ccccc2F)C[C@@H]1C [Example I-519] | 50 to 500 | 100 to 1000 | < 100 | –
CCOC(=O)N1C[C@H](C)N(C(C)=O)c2ccc(-c3ccc4c(c3)CCCN4S(C)(=O)=O)cc21 [Example I-1159] | 50 to 500 | 100 to 1000 | 100 to 500 | –
CCOC(=O)N1C[C@H](C)N(C(C)=O)c2ccc(-c3cccc(NS(=O)(=O)N(C)C)c3)cc21 [Example I-1145] | 50 to 500 | 1000 to 10000 | > 500 | –
CC(=O)N1c2ccc(-c3ccc(S(=O)(=O)NC(C)(C)C)cc3)cc2N(C(=O)OC2CCOCC2)C[C@@H]1C [Example I-1266] | 50 to 500 | 100 to 1000 | 100 to 500 | –
COc1ncccc1OC(=O)N1C[C@H](C)N(C(C)=O)c2ccc(-c3cnn(C4CC4)c3)cc21 [Example I-521] | < 50 | < 100 | < 100 | –
